# Literature values as cited in US9714271B2 (ContraVir Pharmaceuticals, Inc., priority 2010, dated 2017).
# Biological target: CyP-A (Homo sapiens, UniProt P62937)
# Sequence (P62937 whole entry): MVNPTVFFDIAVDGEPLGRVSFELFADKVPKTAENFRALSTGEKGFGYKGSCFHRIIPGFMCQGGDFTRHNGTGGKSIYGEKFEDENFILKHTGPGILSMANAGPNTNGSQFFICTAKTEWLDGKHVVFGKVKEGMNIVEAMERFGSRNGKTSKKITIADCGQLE
row,SMILES,binding affinity for CyP-A
1,"C/C=C/C[C@@H](C)[C@@H](O)[C@H]1C(=O)N[C@@H](CC)C(=O)N(C)[C@H](C)C(=O)N(CC)[C@@H](C(C)C)C(=O)N[C@@H](C(C)C)C(=O)N(C)[C@@H](CC(C)C)C(=O)N[C@@H](C)C(=O)N[C@H](C)C(=O)N(C)[C@@H](CC(C)C)C(=O)N(C)[C@@H](CC(C)C)C(=O)N(C)[C@@H](C(C)C)C(=O)N1C [DEBIO 025, MeAla^3EtVal^4-Cyclosporin]",retains binding affinity for CyP-A
2,"C/C=C/C[C@@H](C)[C@@H](O)[C@H]1C(=O)N[C@@H](CC)C(=O)N(C)CC(=O)N(C)[C@@H]([C@@H](C)CC)C(=O)N[C@@H](C(C)C)C(=O)N(C)[C@@H](CC(C)C)C(=O)N[C@@H](C)C(=O)N[C@H](C)C(=O)N(C)[C@@H](CC(C)C)C(=O)N(C)[C@@H](CC(C)C)C(=O)N(C)[C@@H](C(C)C)C(=O)N1C [NIM 811, Melle^4-Cyclosporine]",retains binding affinity for CyP-A
3,"C/C=C/C[C@@H](C)[C@@H](O)[C@H]1C(=O)N[C@@H](CC)C(=O)N(C)[C@H](SCCN(C)C)C(=O)N(C)[C@@H](CC(C)(C)O)C(=O)N[C@@H](C(C)C)C(=O)N(C)[C@@H](CC(C)C)C(=O)N[C@@H](C)C(=O)N[C@H](C)C(=O)N(C)[C@@H](CC(C)C)C(=O)N(C)[C@@H](CC(C)C)C(=O)N(C)[C@@H](C(C)C)C(=O)N1C [SCY-635, DimethylaminoethylthioSar^3-hydroxyLeu^4-Cyclosporin]",retains binding affinity for CyP-A
